Several values for one entry are separate records, joined by “and”; a condition that tells them apart may be missing. Identical values can stand only once.
Legend:
[1] = cited from earlier work
S15V-hP2X3R = target: T1, S15V-hP2X3R (Homo sapiens, UniProt P56373, S15V); test: TEVC of ATP-induced currents, S15V-hP2X3R expressed in X. laevis oocytes (peak current protocol); assay type: cell-based; settings: for IC50 / inhibition at 1000 µM: 1 µM ATP; for IC50: 30-s preincubation of antagonist, X. laevis oocytes, −60 mV, geometric mean; for inhibition at 1000 µM: 1 mM antagonist, mean ± SEM, read-out: Max. inhibition at 1 mM; for reversibility of the inhibitory effect by washout: subsequent control current after washout
T1 construct: expressed in transfected cells; host or cells: Xenopus laevis oocytes (cRNA injection)
T1 sequence (P56373 1-397 S15V): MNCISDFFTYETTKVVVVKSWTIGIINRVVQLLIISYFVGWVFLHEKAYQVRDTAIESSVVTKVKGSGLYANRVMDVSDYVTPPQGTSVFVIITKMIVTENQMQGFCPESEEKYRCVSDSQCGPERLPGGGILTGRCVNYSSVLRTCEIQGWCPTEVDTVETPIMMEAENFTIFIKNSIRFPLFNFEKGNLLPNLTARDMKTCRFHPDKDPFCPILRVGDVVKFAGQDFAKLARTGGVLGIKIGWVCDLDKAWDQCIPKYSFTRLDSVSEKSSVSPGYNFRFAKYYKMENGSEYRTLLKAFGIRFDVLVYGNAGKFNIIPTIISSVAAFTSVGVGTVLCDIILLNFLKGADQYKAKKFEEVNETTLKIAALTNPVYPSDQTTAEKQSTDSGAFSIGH
Description: Oocyte expression plasmids encoding the wild-type (wt) and N-terminally His-tagged (His-) fusion constructs of the hP2X2R, hP2X3R, hP2X4R, and hP2X7R, and the mutant His-^20RMVL^23KVIV^23S^26N-hP2X1R, S^15V-rP2X3R, and His-S^15V-hP2X3R were the same as used in previous research ([Hausmann et al., 2006]; [Wolf et al., 2011]; [Hausmann et al., 2014]; [Obrecht et al., 2019]). In most cases, the N-terminal His-tagged variants of P2XRs were used here and in the previous studies to allow biochemical analyses on affinity-purified proteins using the same constructs. Although this was not required for the present study, it allows for better comparability with our previous studies. Capped cRNAs of different P2XRs were already available in the research group or were synthesized as previously described ([Schmalzing et al., 1991]; [Stolz et al., 2015]). cRNA was injected into collagenase-defolliculated X. laevis oocytes in aliquots of 41 nl or 23 nl (see Supplementary Table S1 for the amount of cRNA used for expression of the indicated P2XR) using a Nanoliter 2000 injector (World Precision Instruments, Sarasota, United States of America) as described previously ([Hausmann et al., 2014]; [Stolz et al., 2015]; [Obrecht et al., 2019]). To express the heteromeric hP2X2/3 receptor, cRNAs encoding His-hP2X2R and wt-hP2X3R were coinjected at a ratio (w/w) of 1:6. Oocytes were stored at 19°C in an oocyte ringer solution (ORi^+) containing 90 mM NaCl, 1 mM KCl, 1 mM CaCl2, 1 mM MgCl2, and 10 mM HEPES (Carl Roth, Karlsruhe, Germany) adjusted to pH 7.4 with NaOH and supplemented with 50 μg/ml gentamicin (AppliChem, Darmstadt, Germany). The procedures followed for the maintenance of and the surgical treatment for X. laevis adults were approved by the governmental animal care and use committee of the State Agency for Nature, Environment, and Consumer Protection (LANUV, Recklinghausen, Germany; reference no. 81-02.04.2019. A355), in compliance with Directive 2010/63/EU of the European Parliament and of the Council on the protection of animals used for scientific purpose.
Ion currents mediated by P2X receptors were evoked by the indicated concentration of ATP or α,β-meATP and were recorded 1 or 2 days after cRNA injection at ambient temperature at a holding potential of −60 mV by two-electrode voltage clamp (TEVC) as previously described ([Hausmann et al., 2006]). Calcium-free ORi^− solution (90 mM NaCl, 1 mM KCl, 2 mM MgCl2, 10 mM HEPES, pH 7.4) was used to avoid bias due to calcium-activated chloride channels (CaCC) endogenously expressed in X. laevis oocytes ([Miledi, 1982]; [Methfessel et al., 1986]). For recordings of wt-hP2X7R, the composition of the ORi^− solution was modified according to protocols described previously and contained 100 mM NaCl, 2.5 mM KCl, 1 mM MgCl2, 5 mM HEPES, pH 7.4 ([Klapperstück et al., 2000]). The oocytes were continuously superfused with ORi^− by gravity flow (5–10 ml/min). The agonists ATP or α,β-meATP and the investigated NSAIDs were diluted in ORi^− on the day of the recording. […] A peak current protocol (Supplementary Figure S1) was used to analyze fast- and intermediate desensitizing P2XR subtypes (P2X1R, P2X3R, and S^15V-P2X3R), and a steady-state protocol (Supplementary Figure S2) was used for slowly or partially desensitizing P2X subtypes (P2X2R, P2X2/3R, and P2X4R). For recordings of P2X7R, a modified steady-state protocol was used ([Hausmann et al., 2006]). The application of different bath solutions was controlled by computer-operated magnetic valves controlled by the CellWorks E 5.5.1 software (npi electronic, Tamm, Germany).
Antagonist concentration–response data and IC50 values were calculated by normalizing ATP-induced responses to the control responses (recorded in the presence and absence of the antagonist, respectively). […]

O=C(O)Cc1ccccc1Nc1c(Cl)cccc1Cl [Diclofenac, diclofenac]
plasma levels, intramuscular injection ([1]; injected intramuscularly, ref Drago et al., 2017): approximately 1.8 μg/ml and ~6 μM | maximum plasma levels, oral ([1]; oral application of 50–75 mg diclofenac, ref Kurowski et al., 1994, Kienzler et al., 2010): 2.3–2.6 μg/ml and 7–8 μM | plasma levels, transdermal application ([1]; transdermal application, ref Efe et al., 2014): low nanomolar | IC50 (S15V-hP2X3R): 138 µM | inhibition at 1000 µM (S15V-hP2X3R): ~80% | reduction of current amplitude in the presence of 3–10 µM diclofenac (S15V-hP2X3R; 3–10 µM diclofenac): 20%–30% | inhibition at 3 µM (S15V-hP2X3R; read-out: % inhibition of 10 µM ATP-induced currents by 3 µM diclofenac, 3 µM diclofenac, 10 µM ATP, ± SEM): -1.6% | inhibition at 30 µM (S15V-hP2X3R; read-out: % inhibition of 10 µM ATP-induced currents by 30 µM diclofenac, 30 µM diclofenac, 10 µM ATP, ± SEM): 24% | reversibility of the inhibitory effect by washout (S15V-hP2X3R): not reversible

O=C(O)c1ccccc1Nc1cccc(C(F)(F)F)c1 [Flufenamic acid, flufenamic acid]
plasma levels, transdermal, repetitive application ([1]; applied transdermally, even with repetitive application, ref Drago et al., 2017): ≤ 180 nM | IC50 (S15V-hP2X3R): 221 µM and 222 µM | inhibition at 1000 µM (S15V-hP2X3R): 69.8% | reversibility of the inhibitory effect by washout (S15V-hP2X3R): not reversible

— article PMC10060569 (Frontiers in Pharmacology, 2023)
